Assay results taken from ChEMBL document CHEMBL1123319, “Synthesis and biological activity of 5-phenylselenenyl-substituted pyrimidine nucleosides” (J Med Chem, 1986).
Each block holds one compound with its values, some of them ahead of it. The source made the active and inactive calls. The calls are words filed in the database; no cut-off is given here.

What was measured:
[1] = molecular target: Thymidylate synthase (Mus musculus) (UniProt P07607); assay: Compound was evaluated for its ability to inhibit tritium release using 1 uM [5-3H]-dCyd for the cellular enzyme assay.
[2] = molecular target: Thymidylate synthase (Mus musculus) (UniProt P07607); assay: compound was evaluated for its ability to inhibit tritium release using 1 uM [5-3H]-dUrd for the cellular enzyme assay; Inactive
[3] = tested on: Human alphaherpesvirus 1; assay: (§1) Compound was tested in mice for the cytotoxicity against the herpes simplex virus type 1 (strain F) in plaque; Inactive; format: organism-based; conditions: human alphaherpesvirus 1, in vivo
[4] = tested on: HL-60; assay: Anticancer activity was evaluated for the compound against parent promyelocytic leukemia cell line (HL-60-GHPRT+/dCK+); format: functional; conditions: Homo sapiens, read-out: ED50 (the source's name)
[5] = species: Mus musculus; assay: as §1; format: functional, organism-based
[6] = molecular target: Thymidylate synthase (Mus musculus) (UniProt P07607); assay: Inhibition of thymidylate synthase in L1210 cells; format: cell-based
[7] = compound was evaluated for its ability to inhibit tritium release using 1 uM [5-3H]-dUrd for the cellular enzyme assay.; format: functional
[8] = tested on: HL-60; assay: Anticancer activity was evaluated for the compound against ara-C resistant promyelocytic leukemia cell line that is Cyd-kinase deficient (HL-60-HGPRT-/dCK-); format: functional; conditions: Homo sapiens, read-out: ID50 (the source's name)
[9] = tested on: HL-60; assay: Anticancer activity of the compound against ara-C resistant promyelocytic leukemia cell line that is Cyd-kinase deficient (HL-60-HGPRT-/dCK-) is determined; format: functional; conditions: Homo sapiens, read-out: ED50 (the source's name)

Chain of Thymidylate synthase (Mus musculus) (P07607 whole entry, looked up): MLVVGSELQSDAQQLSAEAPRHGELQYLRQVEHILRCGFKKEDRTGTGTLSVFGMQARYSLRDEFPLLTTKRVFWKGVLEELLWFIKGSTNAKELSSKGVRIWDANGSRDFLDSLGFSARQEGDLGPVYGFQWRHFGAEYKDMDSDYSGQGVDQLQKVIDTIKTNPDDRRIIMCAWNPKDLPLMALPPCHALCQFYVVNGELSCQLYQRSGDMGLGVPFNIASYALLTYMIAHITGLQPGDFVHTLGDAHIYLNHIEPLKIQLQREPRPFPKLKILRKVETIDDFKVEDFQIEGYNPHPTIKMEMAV

SMILES: O=c1[nH]c(=O)n([C@H]2C[C@H](O)[C@@H](CO)O2)cc1[Se]c1ccccc1
ID50 [1]: 70 µM | ID50 [2]: inactive | LD50 [3]: Not Active

SMILES: O=c1[nH]c(=O)n([C@@H]2O[C@H](CO)[C@@H](O)[C@@H]2O)cc1[Se]c1ccccc1
EC50 [4]: 88 µM | LD50 [5]: inactive

SMILES: Nc1nc(=O)n([C@@H]2O[C@H](CO)[C@@H](O)[C@@H]2O)cc1[Se]c1ccccc1
ED50 [6]: 25 µM | ID50 [7]: 60 µM | IC50 [8]: 375 µM

ED50 [6]: 0.03 µM | EC50 [4]: 0.047 µM | EC50 [9]: 30 µM
SMILES: Nc1ccn([C@@H]2O[C@H](CO)[C@@H](O)[C@@H]2O)c(=O)n1 [CYTARABINE]
